How the values were obtained:
[1] = tested on: imiquimod-induced psoriasis mouse model; experiment: Subcutaneous injection of ABT-737 injection in imiquimod-induced psoriasis mouse model (Example 5); type: in vivo; conditions: subcutaneous injection 25 mg/kg/day
Protocol: Effects of subcutaneous injection of 2.5 mg/ml BCL-2 inhibitor (ABT-737 injection) on imiquimod-induced psoriasis mouse model were studied.
16 healthy female Balb/c mice at the age of 8 weeks with a body weight of 20±2 g were taken, and depilated by 2×2 cm^2 on the back of the torso. After 24 h of depilation, it was confirmed that there was no abnormal change in depilated areas, and the mice were randomly divided into 4 groups, including: (1) a normal control group (3 mice): no special operations were conducted; (2) a psoriasis mouse model group (3 mice): psoriasis model was induced by external application of imiquimod; (3) a group of subcutaneous injection of ABT-737 injection (Example 1) to treat psoriasis mouse model (hereinafter referred to as ABT-737 subcutaneous injection group, 5 mice): psoriasis model was induced by external application of imiquimod, and subcutaneous injection of 25 mg/kg/day ABT-737 was conducted for treatment (that is, 200 μl of 2.5 mg/ml ABT-737 injection was given to the above-mentioned mice); (4) a group of subcutaneous injection of blank injection (Example 3) to treat psoriasis mouse model (hereinafter referred to as blank injection for subcutaneous injection group, 5 mice): psoriasis model was induced by external application of imiquimod, and subcutaneous injection of blank injection was conducted in an equal volume with the ABT-737 subcutaneous injection group.
Except for the normal control group, the above-mentioned mice are all prepared with imiquimod-induced psoriasis models: 62.5 mg of 5% imiquimod (Sichuan Med Shine Pharmaceutical Co., Ltd.) was applied evenly with a cotton swab on the depilated areas on the back of the torso of the mouse, by once a day for 7 consecutive days with an interval of 24 h. After the modeling, the skin of the mouse back modeling in the psoriasis model group was taken for tissue paraffin embedding and routine section for HE staining observation. Compared with the normal control group, the model is established based on histological changes such as parakeratosis and spinous layer hypertrophy.
Immunohistochemical staining of p16, p21 and CD4 was conducted at the same time. The ratio of p16 and p21 positive cells of skin cellular senescence-related molecules between each group was compared under a multispectral microscope, and the infiltration degree of CD4^+ T cells in the skin between each group was compared (FIG. 3). • (3) In addition, the skin specimens of the back modeling sites of the torso of a total of 10 mice in the ABT-737 subcutaneous injection group and the blank injection for subcutaneous injection group were taken, added to an RNA protection solution, cut and ground to prepare a single cell suspension. […]

[2] = tested on: imiquimod-induced psoriasis mouse model; experiment: External application of ABT-737 gel and intraperitoneal injection of ABT-737 injection in imiquimod-induced psoriasis mouse model (Example 6); type: in vivo; conditions: intraperitoneal injection 25 mg/kg/day
Protocol: Effects of external application of BCL-2 inhibitor ABT-737 gel (Example 2) and intraperitoneal injection of 2.5 mg/ml BCL-2 inhibitor ABT-737 injection (Example 1) on imiquimod-induced psoriasis mouse model was studied.
19 healthy female Balb/c mice at the age of 8 weeks with a body weight of 20±2 g were taken, and depilated by 2×2 cm^2 on the back of the torso. After 24 h of depilation, it was confirmed that there was no abnormal change in depilated areas, and the mice were randomly divided into 5 groups, including: (1) a psoriasis mouse model group (3 mice): psoriasis model was induced by external application of imiquimod; (2) a group external application of ABT-737 gel (Example 2) for treating psoriasis mouse model (hereinafter referred to as ABT-737 gel treatment group, 5 mice): psoriasis model was induced by external application of imiquimod, and each mouse was treated with ABT-737 gel 0.5 g/day for external application; (3) a group of external application of blank gel (Example 4) to treat the psoriasis mouse model (hereinafter referred to as the blank gel control group, 5 mice): the psoriasis model was induced by external application of imiquimod, and each mouse was treated with blank gel the same amount as the ABT-737 treatment group by external application; (4) a group of intraperitoneal injection of BCL-2 inhibitor ABT-737 injection (Example 1; hereinafter referred to as ABT-737 intraperitoneal injection treatment group, 3 mice): psoriasis model was induced by external application of imiquimod, and each mouse was treated by intraperitoneal injection of 25 mg/kg/day of ABT-737 (that is, 200 μl of 2.5 mg/ml ABT-737 injection was given to the above-mentioned mice); (5) a group of blank injection for intraperitoneal injection (Example 3; hereinafter referred to as blank injection for intraperitoneal injection group, 3 mice): psoriasis model was induced by external application of imiquimod, and each mouse was treated by intraperitoneal injection of 200 μl of blank injection. […]

[3] = vs blank injection for subcutaneous injection group, FIG. 3

CN(C)CC[C@H](CSc1ccccc1)Nc1ccc(S(=O)(=O)NC(=O)c2ccc(N3CCN(Cc4ccccc4-c4ccc(Cl)cc4)CC3)cc2)cc1[N+](=O)[O-] [ABT-737]
dermal inflammatory cells (HE staining) ([1]; FIG. 2): significantly reduced
downward extension of epidermal protrusions on the back skin lesions (HE staining) ([1]; FIG. 2): significantly reduced
spinous cell layer (HE staining) ([1]; FIG. 2): thinned
systemic damage ([1]; conclusion from spleen and DLN T cell subsets): without any systemic damage
appearance of skin at the modeling site: skin swelling, skin thickening and scales ([1]; vs blank injection for subcutaneous injection group and psoriasis model group, FIG. 1): significant improvement
proportion of CD4+ cells infiltrated by dermal inflammation (immunohistochemistry) [1, 3]: significantly reduced
proportion of senescent cells staining positive in p16 and p21 in paraffin sections of skin lesions (immunohistochemistry) [1, 3]: significantly reduced
mRNA expression levels of genes corresponding to P16, P21, BCL-2, INF-7 and IL17A in skin (real-time quantitative PCR) ([1]; vs blank injection for subcutaneous injection group, FIG. 4): decrease significantly
improvement of the skin lesions of the mouse model (skin appearance) ([2]; FIG. 6): better than the psoriasis model group, the blank gel control group and the blank injection for intraperitoneal injection group, but is slightly inferior to the ABT-737 gel treatment group
improvement of the skin lesions of the mouse model (HE pathological sections) ([2]; FIG. 7): better than the psoriasis model group, the blank gel control group and the blank injection for intraperitoneal injection group, but is slightly inferior to the ABT-737 gel treatment group
reduction of p16, p21, CD4 and BCL2 positive cells (immunohistochemistry) ([2]; FIG. 8): better than the blank gel control group and the blank injection for intraperitoneal injection group, but is slightly inferior to the ABT-737 gel treatment group

Reference: patent US20230398133A1, “USE OF B-CELL LYMPHOMA 2 (BCL-2) INHIBITOR AND PHARMACEUTICAL COMPOSITION FOR TREATING CELLULAR SENESCENCE-RELATED SKIN DISEASES” (Xeon Biopharmaceutical Limited, priority 2020, published 2023)
